Test system: human T-bet
Assay: HEKT-bet-luc assay (normalized HEKT-bet IC50)
Type: cell-based
Conditions: compound 24 hours, normalized to reference ER-819544
Experimental: HEKT-bet-luc assay: This assay measures a T-bet dependent reporter (luciferase) activity in engineered HEK cells that express a human T-bet and a T-box responsive element driving luciferase reporter. HEKT-bet cells were plated at 2×10^4/well in 96-well plate and compound was added into cell culture for 24 hours. Luciferase activity was measured by adding 50 μl of Steady-Glo reagent (Promega) and samples were read in Victor V reader (PerkinElmer). The activity of compound was determined by comparing compound treated samples to non-compound treated vehicle controls. The IC50 values were calculated utilizing a maximum value corresponding to the amount of luciferase in the absence of a test compound and a minimum value corresponding to a test compound value obtained at maximum inhibition.
Determination of Normalized HEKT-bet IC50 values: Compounds were assayed in microtiter plates. Each plate included a reference compound which was ER-819544. The un-normalized IC50 value for a particular compound was divided by the IC50 value determined for the reference compound in the same microtiter plate to provide a relative potency value. The relative potency value was then multiplied by the established potency of the reference compound to provide the normalized HEKT-bet IC50 value. […] The IC50 values provided herein were obtained using this normalization method.

[1] = Homo sapiens, HEK293, 24 h, Table 4, engineered HEK cells

Structure (SMILES)	IC50 [1]	also measured
CCN1C(=O)N2Cc3cc(OC)cc(OC)c3[C@H](C)C=C2C12CCN(Cc1cc(C)ccc1F)CC2 [ER-819947]	2600 nM	
CCN1C(=O)N2Cc3cc(OC)cc(OC)c3[C@H](C)C=C2C12CCN(Cc1ccc(F)c(OC)c1)CC2 [ER-819948]	> 10000 nM	
CCN1C(=O)N2Cc3cc(OC)cc(OC)c3[C@@H](C)C=C2C12CCN(Cc1cccc3nccnc13)CC2 [ER-819953-01]	26 nM	
CCN1C(=O)N2Cc3cc(OC)cc(OC)c3[C@@H](C)C=C2C12CCN(Cc1cccc3ncccc13)CC2 [ER-819954-01]	47 nM	
CCN1C(=O)N2Cc3cc(OC)cc(OC)c3[C@@H](C)C=C2C12CCN(Cc1cccc3cccnc13)CC2 [ER-819955-01]	20 nM	
CCN1C(=O)N2Cc3cc(OC)cc(OC)c3[C@@H](C)C=C2C12CCN(Cc1nccn1C)CC2 [ER-819957-01]		IC50 (Table 4, engineered HEK cells): 55 nM
CCN1C(=O)N2Cc3cc(OC)cc(OC)c3[C@@H](C)C=C2C12CCN(Cc1ccnn1C)CC2 [ER-819958-01]	79 nM	
CCN1C(=O)N2Cc3cc(OC)cc(OC)c3[C@@H](C)C=C2C12CCN(Cc1ccn(C)c1)CC2 [ER-819961-01]	96 nM	
CCN1C(=O)N2Cc3cc(OC)cc(OC)c3[C@@H](C)C=C2C12CCN(Cc1nc3ccccc3[nH]1)CC2 [ER-819965-01]	130 nM	
CCN1C(=O)N2Cc3cc(OC)cc(OC)c3[C@@H](C)C=C2C12CCN(Cc1ccc3[nH]ccc3c1)CC2 [ER-819966-01]	48 nM	
CCN1C(=O)N2Cc3cc(OC)cc(OC)c3[C@@H](C)C=C2C12CCN(Cc1cn(C)nc1C)CC2 [ER-819971-01]	34 nM	
CCN1C(=O)N2Cc3cc(OC)cc(OC)c3[C@@H](C)C=C2C12CCN(Cc1cc(C)nn1C)CC2 [ER-819973-01]	30 nM	
CCN1C(=O)N2Cc3cc(OC)cc(OC)c3[C@@H](C)C=C2C12CCN(Cc1cnn(C)c1C)CC2 [ER-819976-01]	23 nM	
CCN1C(=O)N2Cc3cc(OC)cc(OC)c3[C@@H](C)C=C2C12CCN(Cc1cccn1-c1cccnc1)CC2 [ER-819979-01]	120 nM	
CCN1C(=O)N2Cc3cc(OC)cc(OC)c3[C@@H](C)C=C2C12CCN(Cc1nc3ccccc3o1)CC2 [ER-819981-01]	200 nM	
CCN1C(=O)N2Cc3cc(OC)cc(OC)c3[C@@H](C)C=C2C12CCN(Cc1nccc(-c3ccccc3)n1)CC2 [ER-819985-01]	130 nM	
CCN1C(=O)N2Cc3cc(OC)cc(OC)c3[C@@H](C)C=C2C12CCN(Cc1nc(OC)cc(OC)n1)CC2 [ER-820004-01]	67 nM	
CCN1C(=O)N2Cc3cc(OC)cc(OC)c3[C@@H](C)C=C2C12CCN(Cc1cccn1CCC#N)CC2 [ER-820008-00]	240 nM	
CCN1C(=O)N2Cc3cc(OC)cc(OC)c3[C@@H](C)C=C2C12CCN(Cc1nccn1OCc1ccccc1)CC2 [ER-820009-00]	110 nM	
CCN1C(=O)N2Cc3cc(OC)cc(OC)c3[C@@H](C)C=C2C12CCN(Cc1cccn1-c1cc(C)on1)CC2 [ER-820017-01]	69 nM	
CCN1C(=O)N2Cc3cc(OC)cc(OC)c3[C@@H](C)C=C2C12CCN(Cc1cccn1-c1cnccn1)CC2 [ER-820020-02]	180 nM	
CCN1C(=O)N2Cc3cc(OC)cc(OC)c3[C@@H](C)C=C2C12CCN(Cc1cc(OC)c(F)c(OC)c1)CC2 [ER-824214-00]	29 nM	
COc1cc2c(c(OC)c1)C(C)(C)C=C1N(C2)C(=O)NC12CCN(Cc1ccccc1)CC2 [compound 819667]		IC50 (Homo sapiens, HEK293, 24 h, Table 2, engineered HEK cells): 250 nM

Source: patent US20110065916A1, “METHOD OF MAKING IMIDAZOAZEPINONE COMPOUNDS” (priority 2007, published 2011)
